Experiments:
[1] = test system: SARS-CoV-2 Spike protein; experiment: Differential scanning fluorimetry; type: binding; conditions: 1 μM Spike, PBS, Sypro Orange
[2] = test system: SARS-CoV-2 (USA-WA1/2020), Vero E6 cells
[3] = test system: SARS-CoV-2 Spike protein; type: biochemical
[4] = test system: SARS-CoV-2 Spike/ACE2; Spike-expressing U2OS cells fusing with ACE2-producing Calu-3 cells; type: cell-based, human cells; SARS-CoV-2 Spike
[5] = test system: SARS-CoV-2 Spike-pseudotyped viruses (HIV-based), H1299 cells; type: cell-based, SARS-CoV-2 Spike (HIV-based pseudovirus); human H1299 cells
[6] = test system: SARS-CoV-2 (USA-WA1/2020), Vero E6 cells; type: cell-based
[7] = test system: human angiotensin-converting enzyme 2 (ACE2 receptor); conditions: on enterocytes; cited from earlier work
[8] = test system: SARS-CoV-2 Spike pseudovirus; conditions: cited from earlier work
[9] = micromolar concentrations of defensin

Molecule	Spike destabilization relative to HNP1 [1]	destabilization of Spike protein [1, 9]	melting peak of Spike [1, 9]	inhibition of SARS-CoV-2 infection [2]	IC50 ([2]; USA-WA1/2020), Vero E6 cells, 24 h) [µM]	aggregation and precipitation of Spike [3]	inhibition of syncytia formation [4]	effect of serum on inhibition of pseudovirus infection [5]	inhibition of infection after pre-incubation of pseudovirus [5]	pseudovirus infection efficiency after pre-treatment of cells [5]	SARS-CoV-2 infectivity [6]	binding to human ACE2 [7]	SARS-CoV-2 Spike pseudovirus infection [8]
CC[C@H](C)[C@@H]1NC(=O)CNC(=O)[C@H](CCCCN)NC(=O)CNC(=O)[C@@H]2CSSC[C@H](NC1=O)C(=O)N[C@@H](CCCNC(=N)N)C(=O)N[C@H]1CSSC[C@H](NC(=O)[C@H](CCCNC(=N)N)NC(=O)[C@@H]3CSSC[C@H](NC(=O)[C@H]([C@@H](C)CC)NC1=O)C(=O)NCC(=O)N[C@@H](CCCNC(=N)N)C(=O)NCC(=O)N[C@@H]([C@@H](C)CC)C(=O)N3)C(=O)N[C@@H]([C@@H](C)CC)C(=O)N2 [RC-101]	less prominent than for HNP1	destabilized	loss of the melting peak at its normal position	inhibited SARS-CoV-2 infection	29 ± 7.6	partial aggregation and precipitation	strongly inhibited syncytia formation	serum had a negative influence on the inhibitory ability	significantly inhibited the infection	did not affect the pseudovirus infection efficiency	strongly inhibited		
HD5: enteric human α-defensin HD5 (peptide, UniProt Q01523 20-94, looked up, Defensin-5) Defensin alpha 5: ESLQERADEATTQKQSGEDNQDLAISFAGNGLSALRTSGSQARATCYCRTGRCATRESLSGVCEISGRLYRLCCR												binds to human angiotensin-converting enzyme 2	inhibition of SARS-CoV-2 Spike pseudovirus infection

Source: paper PMC8413479 (Journal of molecular biology, 2021)
